Assay results taken from US20240368118A1, “CEREBLON BINDING COMPOUNDS, COMPOSITIONS THEREOF, AND METHODS OF TREATMENT THEREWITH” (CELGENE CORPORATION, priority 2021, published 2024).
Counter-ions that a name gives are not always drawn.

Biological target: T1, AR (Homo sapiens, UniProt P10275)
T1 construct: endogenous in cells; host or cells: VCaP cells
T1 sequence (P10275 1-920): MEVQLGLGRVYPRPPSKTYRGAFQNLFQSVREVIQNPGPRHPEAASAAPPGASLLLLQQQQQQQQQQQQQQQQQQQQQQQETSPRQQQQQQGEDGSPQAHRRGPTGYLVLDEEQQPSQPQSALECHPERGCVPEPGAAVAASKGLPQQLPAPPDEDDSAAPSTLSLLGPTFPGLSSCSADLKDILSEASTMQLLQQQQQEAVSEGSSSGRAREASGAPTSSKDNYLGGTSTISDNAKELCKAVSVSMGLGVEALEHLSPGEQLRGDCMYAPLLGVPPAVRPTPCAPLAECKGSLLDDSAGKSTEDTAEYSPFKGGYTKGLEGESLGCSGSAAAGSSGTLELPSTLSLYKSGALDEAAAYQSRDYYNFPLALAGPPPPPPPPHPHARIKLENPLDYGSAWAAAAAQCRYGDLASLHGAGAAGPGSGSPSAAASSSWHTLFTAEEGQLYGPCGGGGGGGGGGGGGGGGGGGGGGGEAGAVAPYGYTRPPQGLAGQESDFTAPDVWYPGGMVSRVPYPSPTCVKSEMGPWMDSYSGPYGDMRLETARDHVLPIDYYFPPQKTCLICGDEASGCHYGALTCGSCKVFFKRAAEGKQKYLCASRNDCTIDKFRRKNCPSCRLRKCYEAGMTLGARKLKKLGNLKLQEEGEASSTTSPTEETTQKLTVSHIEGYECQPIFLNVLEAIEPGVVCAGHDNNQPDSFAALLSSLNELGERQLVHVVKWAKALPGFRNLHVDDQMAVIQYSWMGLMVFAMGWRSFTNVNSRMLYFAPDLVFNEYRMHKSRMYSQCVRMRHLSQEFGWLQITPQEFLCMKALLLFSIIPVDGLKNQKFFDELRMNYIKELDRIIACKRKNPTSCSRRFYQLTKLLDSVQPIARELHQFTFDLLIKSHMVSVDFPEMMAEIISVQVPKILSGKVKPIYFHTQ
Test: VCAP AR Degradation Assay
Format: cell-based
Conditions: VCaP cells, 24 h; for DC50: AR ELISA, concentration when AR level = 50% of DMSO control; for Ymin: lowest AR level normalized to DMSO control, class symbols
Method: VCAP AR Degradation Assay. Test compounds were pre-dispensed into a Corning CellBind 96-well clear bottom plate (Cat #3300) using an acoustic dispenser to make a 10-point concentration series at 1:3 dilution for each compound. The final top concentration of each compound was 5 μM. DMSO at a final concentration of 0.1% was used as a control. VCaP cells cultured in DMEM with 8% fetal bovine serum (FBS) were seeded at 50K cells per well in a 200 μL volume into the compound plate and incubated at 37° C. in a C02 incubator for 24 h. The medium was carefully removed from the cells and the plate was placed on ice. One hundred μL of ice-cold 1× cell lysis buffer from Cell Signaling Technologies (Cat #9803) was added to each well of the cells and the plate was incubated at 4° C. on a shaker for 1 h. Fifteen μL of cell lysate was used for AR ELISA detection using a PathScan Total Sandwich AR ELISA kit (Cell Signaling Technology, Cat #12580). AR levels in compound-treated wells were normalized to that of DMSO control and expressed as percent of control (PoC) (y). A Four Parameter Logistic Model (Sigmoidal Dose-Response Model) was used to determine the compound's DC50, and EC50, using the following equation: […]
The lowest measured AR level normalized to DMSO control in response to compound treatment, termed Y value, was used to characterize the compound-mediated AR degradation efficiency.

| SMILES | DC50 [nM] | Ymin |
| --- | --- | --- |
| C[C@@H]1CN(CCO[C@H]2CC[C@H](N3C(=S)N(c4ccc(C#N)c(C(F)(F)F)c4)C(=O)C3(C)C)CC2)C[C@H](C)N1CC(=O)Nc1ccc(C2(C)CCC(=O)NC2=O)cc1 (single isomer, unassigned) [Cmpd 9, hydrochloride] | 100 to 10000 | *** (30%<Y<80%) |
| C[C@@H]1CN(CCO[C@H]2CC[C@H](N3C(=S)N(c4ccc(C#N)c(C(F)(F)F)c4)C(=O)C3(C)C)CC2)C[C@H](C)N1CC(=O)Nc1ccc(C2(C)CCC(=O)NC2=O)cc1 (single isomer, unassigned) [Cmpd 10, hydrochloride] | 100 to 10000 | *** (30%<Y<80%) |
| C[C@@H]1CN(CCO[C@H]2CC[C@H](N3C(=S)N(c4ccc(C#N)c(C(F)(F)F)c4)C(=O)C3(C)C)CC2)C[C@H](C)N1CC(=O)Nc1ccc(N2CCC(=O)NC2=O)cc1 [Cmpd 1, 2-((2S,6R)-4-(2-((trans-4-(3-(4-Cyano-3-(trifluoromethyl)phenyl)-5,5-dimethyl-4-oxo-2-thioxoimidazolidin-1-yl)cyclohexyl)oxy)ethyl)-2,6-dimethylpiperazin-1-yl)-N-(4-(2,4-dioxotetrahydropyrimidin-1(2H)-yl)phenyl)acetamide hydrochloride] | 100 to 10000 | *** (30%<Y<80%) |
| C[C@@H]1CN(CCO[C@H]2CC[C@H](N3C(=S)N(c4ccc(C#N)c(C(F)(F)F)c4)C(=O)C3(C)C)CC2)C[C@H](C)N1CC(=O)Nc1ccc(C2CCC(=O)NC2=O)cc1 (stereo partly drawn) [Cmpd 2, 2-((2S,6R)-4-(2-((trans-4-(3-(4-Cyano-3-(trifluoromethyl)phenyl)-5,5-dimethyl-4-oxo-2-thioxoimidazolidin-1-yl)cyclohexyl)oxy)ethyl)-2,6-dimethylpiperazin-1-yl)-N-(4-(2,6-dioxopiperidin-3-yl)phenyl)acetamide hydrochloride] | 5 to 15 | *** (30%<Y<80%) |
| C[C@@H]1CN(CCC[C@H]2CC[C@H](N3C(=S)N(c4ccc(C#N)c(C(F)(F)F)c4)C(=O)C3(C)C)CC2)C[C@H](C)N1CC(=O)Nc1ccc(C2CCC(=O)NC2=O)cc1 (stereo partly drawn) [Cmpd 3, 2-((2R,6S)-4-(3-(trans-4-(3-(4-Cyano-3-(trifluoromethyl)phenyl)-5,5-dimethyl-4-oxo-2-thioxoimidazolidin-1-yl)cyclohexyl)propyl)-2,6-dimethylpiperazin-1-yl)-N-(4-(2,6-dioxopiperidin-3-yl)phenyl)acetamide hydrochloride] | 5 to 15 | ** (20%<Y≤30%) |
| C[C@@H]1CN(CCO[C@H]2CC[C@H](N3C(=S)N(c4ccc(C#N)c(Cl)c4)C(=O)C3(C)C)CC2)C[C@H](C)N1CC(=O)Nc1ccc(C2CCC(=O)NC2=O)cc1 (stereo partly drawn) [Cmpd 4, 2-((2R,6S)-4-(2-((trans-4-(3-(3-Chloro-4-cyanophenyl)-5,5-dimethyl-4-oxo-2-thioxoimidazolidin-1-yl)cyclohexyl)oxy)ethyl)-2,6-dimethylpiperazin-1-yl)-N-(4-(2,6-dioxopiperidin-3-yl)phenyl)acetamide hydrochloride] | ≤ 5 | *** (30%<Y<80%) |
| C[C@@H]1CN(CCO[C@H]2CC[C@H](N3C(=S)N(c4ccc(C#N)c(C(F)(F)F)c4)C(=O)C3(C)C)CC2)C[C@H](C)N1CCC(=O)Nc1ccc(C2CCC(=O)NC2=O)cc1 (stereo partly drawn) [Cmpd 5, 3-((2R,6S)-4-(2-((trans-4-(3-(4-Cyano-3-(trifluoromethyl)phenyl)-5,5-dimethyl-4-oxo-2-thioxoimidazolidin-1-yl)cyclohexyl)oxy)ethyl)-2,6-dimethylpiperazin-1-yl)-N-(4-(2,6-dioxopiperidin-3-yl)phenyl)propanamide] | 5 to 15 | *** (30%<Y<80%) |
